From US11779576B2, “Method of treating C3 glomerulopathy” (CHEMOCENTRYX, INC., priority 2016, dated 2023) come the findings set out here.

“Also recorded” adds a separate entry of the source.

Assay [1] deals with patient with progressive complement 3 glomerulonephritis (recurrent C3GN in a renal transplant). The experiment in a line: Study of compound 1 in a patient with progressive C3 glomerulonephritis: eGFR, proteinuria, clinical condition. In kind it is in vivo, human. The source says:
Under the Special Needs program in the United Kingdom (which is similar to a compassionate use protocol in the US), a C3 glomerulonephritis patient received treatment with the orally administered complement inhibitor compound 1, following the protocol detailed below. The patient had refractory disease despite a kidney transplant and prior treatment with the broadly immunosuppressive drugs rituximab, cyclophosphamide, mycophenolate mofetil, tacrolimus, and steroids. Renal allograft biopsies were taken pre-dose, 2 and 7 months during therapy. The primary efficacy objective is to evaluate the efficacy of compound 1 based on change from baseline in eGFR (MDRD, Estimated Glomerular Filtration Rate) and proteinuria. The patient will have biopsy proven recurrent […] prior to start of dosing, and be deemed eligible based on the inclusion and exclusion criteria. Screening procedures will include recording of demographics, medical history, medication history, physical examination and vital signs, serum chemistry, hematology, urinalysis (including UPCR measurement), viral screening (if not performed within prior 12 weeks), and estimated glomerular filtration rate (eGFR) assessment based on serum creatinine. The baseline eGFR needs to be at least 25 mL/min/1.73 m^2 for study eligibility. On Day 1, the patient will start compound 1 treatment. Patients will take compound 1 30 mg orally twice daily for an initial period of 84 days. The patient will visit the study center on Days 1, 8, 15, 29, 57, and 85. The compound 1 dose will be taken in the morning optimally within one hour after breakfast and in the evening optimally within one hour after dinner. If the patient's clinical condition stabilizes or improves, and there are no adverse events preventing further treatment, the patient may be treated for another 84-day treatment cycle. The 84-day cycles may be repeated for a total of up to 4 cycles under this protocol. For the 84-day cycles after the first cycle, the patient will visit the study center every 4 weeks. There will be 4-week follow-up period after the patient stops the compound 1 treatment. Efficacy Assessments Include: • 1. First morning urinary PCR; • 2. eGFR by Modification of Diet in Renal Disease (MDRD) formula based on serum creatinine; • 3. Plasma and urine pharmacodynamic markers, e.g., MCP-1, C3a, C5a, properdin, and sC5b-9; • 4. Glomerular inflammation (e.g., crescents, inflammatory cell infiltrate, endocapillary proliferation) and C3 deposition in a follow-up renal biopsy sample; Pharmacokinetic Assessments

Assay [2] concerns glomeruli of renal allograft of C3 glomerulonephritis patient. Put plainly: Renal allograft biopsies (histology, immunofluorescence, CD68 staining) pre-dose and at 2 and 7 months of compound 1 therapy. Format: in vivo, human. The settings on record: for Endocapillary hypercellularity/total: pre-treatment 3/11; for CD68-positive cells/glomerulus: pre-treatment 11; for Immunoflourescence microscopy, IgM: pre-treatment trace; for glomerular inflammation: after treatment, PAS staining (FIG. 2). An excerpt:
Under the Special Needs program in the United Kingdom (which is similar to a compassionate use protocol in the US), a C3 glomerulonephritis patient received treatment with the orally administered complement inhibitor compound 1, following the protocol detailed below. The patient had refractory disease despite a kidney transplant and prior treatment with the broadly immunosuppressive drugs rituximab, cyclophosphamide, mycophenolate mofetil, tacrolimus, and steroids. Renal allograft biopsies were taken pre-dose, 2 and 7 months during therapy. […] Protocol of the Study Aim Efficacy Assessments Include: • 1. First morning urinary PCR; • 2. eGFR by Modification of Diet in Renal Disease (MDRD) formula based on serum creatinine; • 3. Plasma and urine pharmacodynamic markers, e.g., MCP-1, C3a, C5a, properdin, and sC5b-9; • 4. Glomerular inflammation (e.g., crescents, inflammatory cell infiltrate, endocapillary proliferation) and C3 deposition in a follow-up renal biopsy sample; Pharmacokinetic Assessments Renal biopsies will be analyzed by periodic acid—Schiff (PAS) staining, immunofluorescence staining for C3, C5b-9, and potentially other markers. Electron microscopy may also be performed.

Consider `Cc1ccc(NC(=O)[C@H]2CCCN(C(=O)c3c(C)cccc3F)[C@H]2c2ccc(NC3CCCC3)cc2)cc1C(F)(F)F` [compound 1], for which the “patient's condition in response to treatment” value in assay [1] (C3 glomerulonephritis patient, refractory disease after kidney transplant, compound 1 30 mg orally twice daily) is “improved”. Besides, the eGFR decline entry is recorded as “attenuated” in assay [1] (after 1 month of treatment (FIG. 1)) and “attenuated or stopped” in assay [1] (eGFR 83 mL/min/1.73 m^2 14 months prior, 46 mL/min/1.73 m^2 at start of treatment). The eGFR entry in assay [1] (during compound 1 treatment) is on record as “stabilized”. Besides, in assay [1] (with compound 1 treatment, 30 mg orally twice daily), the Proteinuria drop entry is reported as “approximately 80%”. The Endocapillary hypercellularity/total was 0/36 in assay [2] (2 months of therapy) and 0/14 in assay [2] (7 months of therapy). Also, the CD68-positive cells/glomerulus is 2-3 cells/glomerulus in assay [2] (2 months of therapy) and 1-2 cells/glomerulus in assay [2] (7 months of therapy). The “Immunoflourescence microscopy, IgM” value in assay [2] (2 months of therapy) and in assay [2] (7 months of therapy) was “neg” each time. Moreover, the glomerular inflammation entry in assay [2] is on record as “reduction”; in assay [2] (listed as Compound 1) it was “reduced”. In assay [2] (on-treatment kidney biopsy compared to pre-treatment biopsy), the glomerular endocapillary proliferation entry was “clearance”. Further, the glomerular inflammatory macrophages entry in assay [2] (on-treatment/repeat biopsies compared to pre-treatment, CD68 staining (FIG. 2)) is “marked decrease; also recorded: reduction”. For the same compound, the glomerular endocapillary hypercellularity result in assay [2] (repeat biopsies, PAS staining after treatment (FIG. 2)) is recorded as “resolution; also recorded: reduction”.
